Data published in patent US20100179344A1, “2-Alkylidene-18,19-Dinor-Vitamin D Compounds” (WISCONSIN ALUMNI RESEARCH FOUNDATION, priority 2004, published 2010).

Tests used:
[1] = Intestinal calcium transport (everted gut sac); type: in vivo, rat; conditions: male Sprague-Dawley rats, low calcium diet, four intraperitoneal doses; FIG. 4
Text: (§1) Weanling, male Sprague-Dawley rats were purchased from Harlan. Upon receipt, the animals were identified by individual tail marks and fed a calcium containing (0.47%) diet (Suda et al., Purified Rodent Diet-Diet 11; Appendix A) for one week before switching to the same diet devoid of calcium (0.02%). Water and a purified rodent diet (Diet 11; Appendix A) containing either 0.47% or 0.02% calcium and 0.3% phosphorus were provided ad libitum. Animals were fed the purified diet containing 0.47% calcium for the first week and then the 0.02% calcium containing diet for the next three weeks of the study. The rats were then fed 0.47% calcium containing diet for one week before switching back to 0.02% calcium containing diet for the remainder of the study. During the second week back on 0.02% calcium containing diet, dose administration began. All doses were administered intraperitoneally in 100 microliters of propylene glycol. Four consecutive doses were given approximately 24 hours apart. […] The level of calcium was determined by diluting the serum into 0.1% lanthum chloride and measuring the absorbance on an atomic absorption spectrophotometer (Perkin Elmer Model 3110, Shelton, Conn.). Twenty-four hours after the last dose, intestinal calcium transport was assessed ex vivo using the everted gut sac technique.

HL-60 cells = test: HL-60 cell differentiation (NBT reduction); type: cell-based, human; conditions: FIG. 2; for percent of HL-60 cells induced to differentiate: NBT assay, concentration 1×10^−7M
Description: The differentiation of HL-60 promyelocytic into monocytes was determined as described by Ostrem et al (J. Biol. Chem. 262, 14164-14171, 1987).
The study drugs were dissolved in ethanol and the concentrations determined using UV spectrophotometry (2MD:molar extinction coefficient=42,000 and Imax=252 nm; 1,25(OH)2D3:molar extinction=18,200 and Imax=265 nm). Serial dilutions were prepared so that a range of drug concentrations could be tested without changing the final concentration of ethanol (<0.2%) present in the cell cultures.
Human promyelocytic leukemia (HL60) cells were grown in RPMI-1640 medium containing 10% fetal bovine serum. The cells were incubated at 37° C. in the presence of 5% CO2.
HL60 cells were plated at 1.2×10^5 cells/ml. Eighteen hours after plating, the cells were administered the drug in ethanol. Four days post-dose, the cells were harvested and a nitro blue tetrazolium reduction assay was performed (Collins et al., 1979; J. Exp. Med. 149:969-974, Appendix A). The percentage of differentiated cells was determined by counting a total of 200 cells and recording the number that contained intracellular black-blue formazan deposits. Verification of differentiation to monocytic cells was determined by measuring phagocytic activity (data not shown). All drug concentrations were tested in duplicate.
This is illustrated by the biological assay results obtained for (20S)-2-methylene-18,19-dinor-1α,25-dihydroxy-vitamin D3 which is summarized in FIGS. 2 through 6. […] Differentiation activity was assessed by a standard differentiation assay, abbreviated as NBT reduction (nitroblue tetrazolium reduction). The assay was conducted according to known procedures, as given, for example, by DeLuca et al U.S. Pat. No. 4,717,721 and Ostrem et al, J. Biol. Chem. 262, 14164, 1987. For the assay, the differentiation activity of the test compounds is expressed in terms of the percent of HL-60 cells having differentiated to normal cells in response to a given concentration of test compound.

[2] = test system: 24-hydroxylase (24OHase) gene promoter in ROS 17/2.8 (bone) cells; test: Transcription activation, 24-hydroxylase promoter luciferase reporter; type: cell-based; conditions: luciferase 16 h after dosing, FIG. 3
Description: Transcriptional activity was measured in ROS 17/2.8 (bone) cells that were stably transfected with a 24-hydroxylase (24OHase) gene promoter upstream of a luciferase reporter gene (Arbour et al., 1998). Cells were given a range of doses. Sixteen hours after dosing the cells were harvested and luciferase activities were measured using a luminometer.
“RLU” in FIG. 3 refers to relative luciferase units.

[3] = target: T1, 1α,25-dihydroxyvitamin D pig intestinal nuclear receptor (Rattus norvegicus, UniProt P13053); test: Competitive VDR binding; conditions: competition with 3H-1,25(OH)2D3; FIG. 1
T1 construct: Full-length recombinant rat receptor was expressed in E. coli; His tag (C); made in house; host or cells: E. coli BL21 (DE3) Codon Plus RIL
T1 sequence (P13053 1-423): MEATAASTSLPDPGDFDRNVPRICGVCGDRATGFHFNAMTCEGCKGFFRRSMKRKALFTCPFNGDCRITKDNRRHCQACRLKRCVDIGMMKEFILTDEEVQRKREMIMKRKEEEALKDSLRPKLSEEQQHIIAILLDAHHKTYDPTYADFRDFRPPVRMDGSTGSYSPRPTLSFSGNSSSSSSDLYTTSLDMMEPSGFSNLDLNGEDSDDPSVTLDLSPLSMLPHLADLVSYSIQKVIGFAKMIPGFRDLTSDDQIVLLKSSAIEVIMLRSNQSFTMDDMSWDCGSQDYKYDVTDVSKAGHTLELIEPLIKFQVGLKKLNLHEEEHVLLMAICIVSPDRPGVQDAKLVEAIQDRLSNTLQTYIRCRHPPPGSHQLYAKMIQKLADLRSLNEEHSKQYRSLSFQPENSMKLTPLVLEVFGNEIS
Description: Competitive binding of the analogs to the porcine intestinal receptor was carried out by the method described by Dame et al (Biochemistry 25, 4523-4534, 1986).
Full-length recombinant rat receptor was expressed in E. coli BL21 (DE3) Codon Plus RIL cells and purified using two different column chromatography systems. The first system was a nickel affinity resin that utilized the C-terminal histidine tag on this protein. The protein that was eluted from this resin was further purified using ion exchange chromatography (S-Sepharose Fast Flow). Aliquots of the purified protein were quick frozen in liquid nitrogen and stored at −80° C. until use. […]
Unlabeled ligands were dissolved in ethanol and the concentrations determined using UV spectrophotometry. […]
Radiolabeled and unlabeled ligands were added to 100 mcl of the diluted protein, mixed and incubated overnight on ice to reach binding equilibrium. […] Total binding was determined from the tubes containing only radiolabeled ligand. The percentage of competition was calculated by subtracting the number of dpm remaining in the hydroxylapatite pellet from the total number of dpm bound, dividing by the total number of dpm bound and multiplying by one hundred. Duplicate tubes were prepared and analyzed for each test concentration.

[4] = Bone calcium mobilization (serum calcium); type: in vivo, rat; conditions: male Sprague-Dawley rats, low calcium diet, four intraperitoneal doses; FIGS. 5 and 6
Text: as §1, with “diet, the animals were tail-bled (baseline serum calcium) and then” for “diet,”, “was initiated.” for “began.”, “apart. Twenty-four hours after the last dose, blood was collected from the tail artery of each experimental animal.” for “apart.”, “Conn.).” for “Conn.). Twenty-four hours after the last dose, intestinal calcium transport was assessed ex vivo using the everted gut sac technique.”

SMILES	intestinal calcium transport activity compared with 1α,25-dihydroxyvitamin D3 [1]	potency in promoting differentiation of leukemia cells compared with 1α,25-dihydroxyvitamin D3 (HL-60 cells; HL-60 cells)	percent of HL-60 cells induced to differentiate (HL-60 cells)	transcriptional activity compared with 1α,25-dihydroxyvitamin D3 [2]	activity in binding to the 1α,25-dihydroxyvitamin D3 receptor [3]	ability to mobilize calcium from bone compared with 1α,25-dihydroxyvitamin D3 [4]
C=C1[C@H](O)CC(=C/C=C2\CCC[C@@H]3C([C@@H](C)CCCC(C)(C)O)CC[C@@H]23)C[C@H]1O (stereo partly drawn) [DP035, (20S)-2-methylene-18,19-dinor-1α,25-dihydroxyvitamin D3]	as active as	more potent	the same degree of differentiation	higher transcriptional activity	very active	clearly not as active
C=C1/C(=C\C=C2/CCC[C@]3(C)[C@@H]([C@H](C)CCCC(C)(C)O)CC[C@@H]23)C[C@@H](O)C[C@@H]1O [C001, 1α,25-dihydroxyvitamin D3, reference compound]			~90%			
